Reference: article PMC10305115, “Development of a Minimalistic Physiologically Based Pharmacokinetic (mPBPK) Model for the Preclinical Development of Spectinamide Antibiotics” (Pharmaceutics, 2023)
Where two headings read alike, the source gives them in different places.

How the values were obtained:
[1] = Minimalistic PBPK model, mouse (fitting and simulation); details: for F Bioavailability component / Ka 1st order absorption rate constant / AUCinf Liver Fold Difference / AUCinf Lung Fold Difference / AUCinf Fold Difference (predicted vs observed) / AUCinf Spleen Fold Difference: healthy mice; for AUCinf Fold Difference (predicted vs observed): plasma
plasma proteins [2] = assay: Plasma protein binding by equilibrium dialysis (RED device), mouse plasma; assay type: in vitro ADME, BALB/c mice
Experimental: (§1) Plasma protein binding was measured by equilibrium dialysis using a RED device (8 kDa molecular cutoff; Thermo Scientific, Rockford, IL, USA) containing plasma and buffer chambers for dialysis and a base plate. Two concentrations (0.5 and 5 mg/L) of 1599 and 1810 were prepared in mouse plasma from BALB/c mice and rat plasma from Sprague-Dawley rats, and an aliquot of 300 µL was added in the plasma chamber in duplicate. A 500 µL aliquot of PBS was added in the buffer chamber for dialysis. Then, the base plate was covered with sealing tape and incubated at 37 °C at approximately 100 rpm on an orbital shaker for 4 h to achieve equilibrium. After incubation, 50 µL of each sample was pipetted from the plasma and buffer chambers into separate micro-centrifuge tubes. A total of 50 µL of plasma was added to the buffer samples and an equal volume of PBS to the collected plasma samples and vortexed. Samples were processed by protein precipitation and analyzed for bound and unbound drug concentrations by liquid chromatography-tandem mass spectrometry (LC-MS/MS). Ranitidine (0.5 and 5 mg/L) was included as a positive control. The fraction of compound unbound to plasma proteins (fu) was calculated from the measured concentrations in the plasma and buffer chambers using the following equation:(1) fu=1−C(Plasma Chamber)−C(Buffer Chamber)/C(Plasma Chamber)

[3] = healthy rats, plasma, IV SD 10 mg/kg
Text: After the successful inter-route extrapolation of the model, we scaled the PBPK model between species by extending the model to rats. This was accomplished by incorporating the physiological parameters of a 225 g rat and updating the experimentally assessed drug-specific parameters k(b/p) and fu.

[4] = Parallel artificial membrane permeability assay (PAMPA); assay type: in vitro ADME; details: passive permeability could not be determined
[5] = Mouse (20 g); BALB/c blood, 37 °C, 1 h
Experimental: (§3) Fresh blood was collected from BALB/c mice and Sprague-Dawley rats via cardiac puncture in tubes with lithium heparin as anticoagulant. Hematocrit was measured using a VetScan HM5 hematology analyzer (Abaxis, Union City, CA, USA). […] Aliquots of pre-warmed whole blood and plasma were spiked with the test compounds and incubated at 37 °C. After 1 h of incubation, the incubated whole blood was removed, and the plasma was separated by centrifugation. Aliquots of the incubated control plasma were also removed after 1 h of incubation. Plasma samples were treated with 8 volumes of ice-cold methanol containing internal standard (100 ng/mL spectinomycin) and analyzed for drug concentrations by LC-MS/MS [12].
(§4) The whole blood to plasma ratio k(b/p) was calculated by taking the ratio of the concentrations measured in the control plasma over the concentrations measured in the plasma centrifuged from the incubated whole blood, as shown in Equation (2). The erythrocyte to plasma partitioning coefficient k(RBC/p) was calculated from the whole blood to plasma ratio by accounting for the measured hematocrit, as shown in Equation (3):(2) k(b/p)=CCP/CP (3) k(RBC/p)=1+1/HCCP/CP−1 where CCP is the concentration of the test compound in the control plasma, CP is the concentration of the test compound in the plasma centrifuged from the incubated whole blood, and H is the measured hematocrit value.

[6] = Integrated mouse and rat PBPK model, inter-animal variability; details: Intravenous Estimate (%RSE); simultaneous fit of mouse and rat plasma and tissue data
[7] = Simcyp multicompartment lung and granuloma model simulation; details: Simcyp model input parameter (Table S1), human PBPK model
ELF proteins [8] = assay: Fraction unbound in epithelial lining fluid calculated by Poulin and Theil equation, mouse; details: calculated from fu in plasma and albumin ratio plasma/ELF
Experimental: (§2) For intravenous administration, the bolus dose was assumed to be mixed instantaneously into the venous blood. For subcutaneous administration, the dose was administered as an external compartment, absorbed into the venous compartment via a first-order absorption rate constant and a bioavailability component. For intrapulmonary aerosol administration, we have modified the lung tissue by adding the epithelial lining fluid (ELF) sub-compartment, as shown in Figure 2. The physiological volume of the ELF sub-compartment was obtained from the literature. The dose was administered as an external compartment, absorbed into the ELF compartment via a first-order absorption rate constant and a bioavailability component. The compound was assumed to be bound to the ELF proteins, and only the unbound fraction was distributed to the other sub-compartments of the lungs and ultimately to the systemic circulation. The fraction unbound in ELF was calculated from the fraction unbound in plasma and the albumin ratio between plasma and ELF using the equation described by Poulin and Theil.

ELF proteins [9] = assay: Fraction unbound in epithelial lining fluid calculated by Poulin and Theil equation, rat; details: calculated from fu in plasma and albumin ratio plasma/ELF
Experimental: as §2

[10] = healthy rats, plasma, IV SD 10 mg/kg; cited from earlier work
[11] = Subcutaneous PBPK model predictions vs observed plasma concentrations in Mtb infected mice; assay type: in vivo, BALB/c mice; details: SC dose-ranging and dose-fractionation studies
[12] = system: murine-lung-derived dendritic cells and a BALB/c-derived monocyte macrophage cell line; details: cited from earlier work
[13] = Rat (225 g); Sprague-Dawley blood, 37 °C, 1 h
Experimental: as §3, §4

plasma proteins [14] = assay: Plasma protein binding by equilibrium dialysis (RED device), rat plasma; assay type: in vitro ADME, Sprague-Dawley rats; details: 0.5 and 5 mg/L, 37 °C, 4 h
Experimental: as §1

[15] = cited from earlier work; for AUCinf Liver Observed / AUCinf Lung Observed / AUCinf Observed / AUCinf Spleen Observed: healthy mice; for AUCinf Observed: plasma
[16] = Intratracheal Estimate (%RSE), intrapulmonary aerosol single dose 50 mg/kg
[17] = Intravenous Estimate (%RSE), model fitted to IV single dose 10 mg/kg plasma and tissue data

SMILES: CN[C@@H]1[C@H](O)[C@H](NC)[C@H]2O[C@]3(O)[C@H](O[C@@H]2[C@H]1O)O[C@H](C)C[C@H]3NC(=O)Cc1ccc(Cl)cn1 [Spectinamide 1599, 2-(5-chloroypyridin-2-yl)-N-((2R,4R,4aS,5aR,6S,7S,8R,9S,9aR, 10aS)-4a,7,9-trihydroxy-2-methyl-6,8-bis(methyl-amino)decahydro-2H-benzo[b]pyrano [2,3-e] [1,4]dioxin-4-yl)acetamide]
- estimated absorption half-life ([1]; IPA administration site, mice): ~ 8 min
- bioavailability ([1]; IPA administration, mice): 33%
- F Bioavailability component [1, 16]: 0.33 (2.03)
- Ka 1st order absorption rate constant [1, 16]: 5.03 (4.53)
- KC→IKidney 1st order back flux from cellular sub compartment of the kidney [1, 17]: 0.15 (31.0) 1/h
- KC→ILiver 1st order back flux from cellular sub compartment of the liver [1, 17]: 0.061 (13.7) 1/h
- KC→ILung 1st order back flux from cellular sub compartment of the lung [1, 17]: 0.028 (41.5) 1/h
- KC→ISpleen 1st order back flux from cellular sub compartment of the spleen [1, 17]: 0.01 (106) 1/h
- KC→Iothers 1st order back flux from cellular sub compartment of the other tissues [1, 17]: 7.0 × 10^−5 (142) 1/h
- F Bioavailability component ([1]; Subcutaneous Estimate (%RSE)): 0.86 (6.15)
- Ka 1st order absorption rate constant ([1]; Subcutaneous Estimate (%RSE)): 4.36 (7.86)
- AUCinf Liver Fold Difference ([1]; IV QD5 10 mg/kg): 1.58
- AUCinf Liver Fold Difference ([1]; IV SD 10 mg/kg): 1.2
- AUCinf Liver Fold Difference ([1]; SC QD5 200 mg/kg): 1.55
- AUCinf Liver Fold Difference ([1]; SC SD 50 mg/kg): 1.3
- AUCinf Lung Fold Difference ([1]; IV QD5 10 mg/kg): 1.39
- AUCinf Lung Fold Difference ([1]; IV SD 10 mg/kg): 1.65
- AUCinf Lung Fold Difference ([1]; SC QD5 200 mg/kg): 1.42
- AUCinf Lung Fold Difference ([1]; SC SD 50 mg/kg): 1.41
- AUCinf Fold Difference (predicted vs observed) ([1]; IPA BIW 50 mg/kg): 1.70
- AUCinf Fold Difference (predicted vs observed) ([1]; IPA BIW 150 mg/kg): 1.49
- AUCinf Fold Difference (predicted vs observed) ([1]; IPA QD5 10 mg/kg): 1.36
- AUCinf Fold Difference (predicted vs observed) ([1]; IPA QD5 50 mg/kg): 1.64
- AUCinf Fold Difference (predicted vs observed) ([1]; IPA QD5 150 mg/kg): 1.33
- AUCinf Fold Difference (predicted vs observed) ([1]; IPA SD 10 mg/kg): 1.13
- AUCinf Fold Difference (predicted vs observed) ([1]; IPA SD 50 mg/kg): 1.05
- AUCinf Fold Difference (predicted vs observed) ([1]; IPA SD 150 mg/kg): 1.23
- AUCinf Fold Difference (predicted vs observed) ([1]; IPA TIW 10 mg/kg): 1.11
- AUCinf Fold Difference (predicted vs observed) ([1]; IPA TIW 50 mg/kg): 1.00
- AUCinf Fold Difference (predicted vs observed) ([1]; IPA TIW 150 mg/kg): 1.18
- AUCinf Fold Difference (predicted vs observed) ([1]; IV QD5 10 mg/kg): 1.39
- AUCinf Fold Difference (predicted vs observed) ([1]; IV SD 10 mg/kg): 1.18
- AUCinf Fold Difference (predicted vs observed) ([1]; SC QD5 200 mg/kg): 1.43
- AUCinf Fold Difference (predicted vs observed) ([1]; SC SD 50 mg/kg): 1.02
- AUCinf Spleen Fold Difference ([1]; IV QD5 10 mg/kg): 1.44
- AUCinf Spleen Fold Difference ([1]; IV SD 10 mg/kg): 1.47
- AUCinf Spleen Fold Difference ([1]; SC QD5 200 mg/kg): 1.14
- AUCinf Spleen Fold Difference ([1]; SC SD 50 mg/kg): 1.11
- estimated first-order absorption half-life ([1]; subcutaneous administration site, mice): ~ 10 min
- bioavailability ([1]; subcutaneous administration, mice): 86%
- fuPlasma fraction unbound in plasma (plasma proteins [2]; Mouse plasma, 0.5 and 5 mg/L, 37 °C, 4 h): 0.602
- plasma protein binding (plasma proteins [2]; mouse and rat): low plasma protein binding
- AUCinf Fold Difference (predicted vs observed) [3]: 1.58
- PAMPA concentrations in the acceptor compartment [4]: below the limit of detection
- k(b/p) blood to plasma ratio [5]: 0.552
- ω KI→CLiver inter-animal variability on KI→CLiver [6]: 0.61 (29.8)
- ω KI→CLung inter-animal variability on KI→CLung [6]: 0.87 (30.6)
- ω KI→COther inter-animal variability on KI→COthers [6]: 0.48 (21.6)
- ω KI→CSpleen inter-animal variability on KI→CSpleen [6]: 0.66 (41.0)
- CLR renal clearance [7]: 3.27 L/h
- fuELF fraction unbound in epithelial lining fluid (ELF proteins [8]): 0.948
- fuELF fraction unbound in epithelial lining fluid (ELF proteins [9]): 0.940
- AUCinf Observed [10]: 19800 ng·h/mL
- difference in pharmacokinetics between healthy and infected mice [11]: no significant difference
- intracellular uptake [12]: concentration-dependent intracellular uptake
- k(b/p) blood to plasma ratio [13]: 0.812
- fuPlasma fraction unbound in plasma (plasma proteins [14]): 0.563
- dose dependency of disposition ([15]; dose range of 10 to 400 mg/kg in mice): did not suggest any dose dependencies
- AUCinf Liver Observed ([15]; IV QD5 10 mg/kg): 19.6 µg·h/g
- AUCinf Liver Observed ([15]; IV SD 10 mg/kg): 19.9 µg·h/g
- AUCinf Liver Observed ([15]; SC QD5 200 mg/kg): 336 µg·h/g
- AUCinf Liver Observed ([15]; SC SD 50 mg/kg): 91.8 µg·h/g
- AUCinf Lung Observed ([15]; IV QD5 10 mg/kg): 4.05 µg·h/g
- AUCinf Lung Observed ([15]; IV SD 10 mg/kg): 3.79 µg·h/g
- AUCinf Lung Observed ([15]; SC QD5 200 mg/kg): 69.1 µg·h/g
- AUCinf Lung Observed ([15]; SC SD 50 mg/kg): 19.1 µg·h/g
- AUCinf Observed ([15]; IPA BIW 50 mg/kg): 14200 ng·h/mL
- AUCinf Observed ([15]; IPA BIW 150 mg/kg): 108000 ng·h/mL
- AUCinf Observed ([15]; IPA QD5 10 mg/kg): 3570 ng·h/mL
- AUCinf Observed ([15]; IPA QD5 50 mg/kg): 39800 ng·h/mL
- AUCinf Observed ([15]; IPA QD5 150 mg/kg): 96900 ng·h/mL
- AUCinf Observed ([15]; IPA SD 10 mg/kg): 5510 ng·h/mL
- AUCinf Observed ([15]; IPA SD 50 mg/kg): 23200 ng·h/mL
- AUCinf Observed ([15]; IPA SD 150 mg/kg): 59500 ng·h/mL
- AUCinf Observed ([15]; IPA TIW 10 mg/kg): 5360 ng·h/mL
- AUCinf Observed ([15]; IPA TIW 50 mg/kg): 24300 ng·h/mL
- AUCinf Observed ([15]; IPA TIW 150 mg/kg): 61700 ng·h/mL
- AUCinf Observed ([15]; IV QD5 10 mg/kg): 6370 ng·h/mL
- AUCinf Observed ([15]; IV SD 10 mg/kg): 7520 ng·h/mL
- AUCinf Observed ([15]; SC QD5 200 mg/kg): 227000 ng·h/mL
- AUCinf Observed ([15]; SC SD 50 mg/kg): 40400 ng·h/mL
- AUCinf Spleen Observed ([15]; IV QD5 10 mg/kg): 3.91 µg·h/g
- AUCinf Spleen Observed ([15]; IV SD 10 mg/kg): 3.42 µg·h/g
- AUCinf Spleen Observed ([15]; SC QD5 200 mg/kg): 110 µg·h/g
- AUCinf Spleen Observed ([15]; SC SD 50 mg/kg): 23.6 µg·h/g
